Assay results from patent US5534533A, “Carboxylate derivatives exhibiting phospholipase A2 inhibitory activity” (Shionogi & Co., Ltd., priority 1993, dated 1996).

How the values were obtained:
[1] = target: T1, intracellular PLA2 (cytosolic PLA2, cPLA2) (Homo sapiens, UniProt P47712); experiment: Intracellular PLA2 (cPLA2) inhibitory activity (14C-arachidonyl phosphatidylcholine substrate); type: biochemical; conditions: 2 μM radiolabelled phosphatidylcholine, 1 μM dioleoylglycerol, 1 mM CaCl2, pH 7.4; read-out: c-PLA2 Inhibition IC50
T1 sequence (P47712 1-749): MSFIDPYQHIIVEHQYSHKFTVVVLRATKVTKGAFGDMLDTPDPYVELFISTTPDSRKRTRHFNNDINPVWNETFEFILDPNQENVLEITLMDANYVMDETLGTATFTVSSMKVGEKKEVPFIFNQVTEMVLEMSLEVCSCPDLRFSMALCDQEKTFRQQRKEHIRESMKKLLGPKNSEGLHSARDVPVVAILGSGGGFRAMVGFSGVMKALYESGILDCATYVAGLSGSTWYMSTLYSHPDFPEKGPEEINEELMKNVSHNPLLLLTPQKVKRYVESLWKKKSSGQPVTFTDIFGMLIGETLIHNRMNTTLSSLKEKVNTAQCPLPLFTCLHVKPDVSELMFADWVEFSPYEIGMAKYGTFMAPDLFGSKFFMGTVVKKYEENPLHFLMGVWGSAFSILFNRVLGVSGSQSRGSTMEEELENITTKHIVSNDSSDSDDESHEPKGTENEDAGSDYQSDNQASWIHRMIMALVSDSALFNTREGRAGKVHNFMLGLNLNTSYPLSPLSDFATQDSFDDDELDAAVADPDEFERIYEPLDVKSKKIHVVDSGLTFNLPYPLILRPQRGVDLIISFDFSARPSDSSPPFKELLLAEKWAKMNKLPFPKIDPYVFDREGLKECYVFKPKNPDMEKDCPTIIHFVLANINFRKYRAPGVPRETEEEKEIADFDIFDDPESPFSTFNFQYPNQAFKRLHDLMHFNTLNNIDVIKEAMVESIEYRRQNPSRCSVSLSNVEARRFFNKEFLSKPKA
Procedure, shortened: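 Sonicated vesicles carrying 2 μM 1-palmitoyl-2-[14C]arachidonyl-phosphatidylcholine with 1 μM dioleoylglycerol served as substrate. Buffer: 50 mM Hepes pH 7.4, 150 mM NaCl, 1 mM CaCl2, 2 mM DTT, 0.1 mg/ml BSA. IC50 values were derived.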

Human secretory PLA2 = target: T2, Human secretory PLA2 (Homo sapiens, UniProt P14555); experiment: Secretory PLA2 inhibitory activity (diheptanoyl thio PC substrate, absorbance at 405 nm); type: biochemical; conditions: diheptanoyl thio PC 1 mM, Triton X100 0.3 mM, pH 7.3, CaCl2 10 mM, 30 minutes, read-out: s-PLA2 Inhibition IC50
T2 sequence (P14555 21-144): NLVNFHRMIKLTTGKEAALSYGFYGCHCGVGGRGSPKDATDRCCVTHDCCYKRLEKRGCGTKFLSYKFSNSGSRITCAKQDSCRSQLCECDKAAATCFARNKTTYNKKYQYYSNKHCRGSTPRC
Procedure, shortened: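 Diheptanoyl thio-PC (1 mM) with Triton X100 (0.3 mM) and DTNB (125 μM) in Tris 25 mM pH 7.3, CaCl2 10 mM, KCl 100 mM, BSA 1.0 mg/ml. Absorbance change at 405 nm read at 30 min; percent inhibition corrected for no-enzyme blanks, IC50 from log-concentration plot.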

adjuvant arthritis = experiment: Adjuvant arthritis in rats (Mycobacterium butyricum), foot edema volume; type: in vivo, Crj/LEW male rat; conditions: rat, 10 mg/kg P.O. daily, 17-18 days after adjuvant; *P < 0.05 (Examples 1, 69), **P < 0.01 (Examples 2, 23, 25) to vehicle control; Example 29 unmarked
Description: Adjuvant arthritis was induced by subcutaneously administering a suspension of 0.5 mg of Mycobacterium butyricum (Difco) in 0.05 ml of liquid paraffin to the pad of left foot of Crj/LEW male rat of 7-8 weeks age weighing 150-170 g. After administering the adjuvant, the volume of edema of both feet was daily measured by a plethysmometer. The adjuvant had been administered, and since the following day, a suspension of the test compound in 0.6% arabic gum was orally administered every day, and 17-18 days after administering the adjuvant, the volume of edema of the foot and that of foot to which no adjuvant had been administered were compared with each other. Volume of the edema in control group was defined as 100%, which value was obtained by subtracting the volume of foot of normal rat (1.2 ml) from the volume measured, and inhibitory percent obtained by using the inhibitor was defined as inhibitory rate. Using the inhibitory rate, effectiveness was determined by Student's-t assay.

SMILES | IC50 [1] | IC50 (Human secretory PLA2) | Inhibition % (To Nontreated Foot), edema volume (adjuvant arthritis)
COc1c(C)c(OC(=O)c2c(C)c(C)c(OCCCOc3ccc(C(F)(F)F)cc3)c(C)c2OC)c(C)c(C)c1C(=O)O [Example 1, 4-[4-[3-(4-Trifluoromethylphenoxy)propyloxy]-2-methoxy-3,5,6-trimethylphenylcarboxy]-2-methoxy-3,5,6-trimethylbenzoic acid] | 20 µM | 21 µM | 43.4%
COc1c(C)c(OC(=O)c2c(C)c(C)c(OCCCOc3ccc(F)cc3)c(C)c2OC)c(C)c(C)c1C(=O)O [Example 2, 4-[4-[3-(4-Fluorophenoxy)propyloxy]-2-methoxy-3,5,6-trimethylphenylcarboxy]-2-methoxy-3,5,6-trimethylbenzoic acid] | 9 µM | 18 µM | 52.3%
COc1c(C)c(OC(=O)c2c(C)c(C)c(OCCCOc3ccc(Cl)cc3)c(C)c2OC)c(C)c(C)c1C(=O)O [Example 23, 4-{4-[3-(4-Chlorophenoxy)propoxy]-2-methoxy-3,5,6-trimethylbenzoyloxy}-2-methoxy-3,5,6-trimethylbenzoic Acid] | 4 µM | 9.4 µM | 66.0%
COc1c(C)c(OC(=O)c2c(C)c(C)c(OCCCOc3ccc(Br)cc3)c(C)c2OC)c(C)c(C)c1C(=O)O [Example 25, 4-{4-[3-(4-Bromophenoxy)propoxy]-2-methoxy-3,5,6-trimethylbenzoyloxy}-2-methoxy-3,5,6-trimethylbenzoic Acid] | 13 µM | 4.6 µM | 66.0%
COc1c(C)c(OC(=O)c2c(C)c(C)c(OCCCOc3ccc(C)cc3)c(C)c2OC)c(C)c(C)c1C(=O)O [Example 29, 4-{4-[3-(4-Methylphenoxy)propoxy]-2-methoxy-3,5,6-trimethylbenzoyloxy}-2-methoxy-3,5,6-trimethylbenzoic Acid] | 8.5 µM | 12 µM | 33.1%
COc1c(C)c(OC(=O)c2c(C)c(C)c(OCCCN3CCN(c4ccc(F)cc4)CC3)c(C)c2OC)c(C)c(C)c1C(=O)O [Example 69, 4-{4-[3-(4-(4-Fluorophenyl)piperazin-1-yl)propoxy]-2-methoxy-3,5,6-trimethylbenzoyloxy}-2-methoxy-3,5,6-trimethylbenzoic Acid] | 36 µM | 12 µM | 24.6%
